For the experiment, the system named is DLD-1 KLF5 promoter-luciferase reporter, luminescence. The experiment is described as follows: KLF5 promoter reporter inhibitors, dose response, luminescence, DLD-1 cells, luciferase reporter (AID 1973). For orientation: Reporter assays use an easily measured gene product as a stand-in for the process of interest.

Consider `COc1ccc(/C=N/NC(=O)CCn2c3ccccc3c3ccccc32)cc1O`, for which the IC50 (as a rule, the concentration at which inhibition is half-maximal) is 1850 nM.
The result for `Nc1c(C(=O)Nc2cccc(C(=O)O)c2)sc2nc3c(cc12)CCCC3` reads 1470 nM; that for `Cc1ccc(C(=O)N/N=C/c2c(O)ccc3ccccc23)cn1`, 1490 nM.
As for `c1ccc(-c2ccc(-c3nc(-c4ccccn4)no3)cc2)cc1`, the figure is 360 nM; as for `CN(C(=O)COC(=O)/C=C/c1cccc([N+](=O)[O-])c1)C1CCS(=O)(=O)C1` (centres undefined), 518 nM; as for `O=C(Nc1nccs1)c1cc2c(s1)CCCCC2`, 2860 nM.
The result for `CN(C)c1ccc(/C=C/c2nc3ccccc3c(=O)[nH]2)cc1` reads 1510 nM; that for `CN1CCN(c2ccc(-c3ccc4ccccc4n3)cc2)CC1`, 166 nM; that for `Oc1ccc(N=Nc2ccccc2C(F)(F)F)c2cccnc12`, 1900 nM.
With `CN(CCO)c1ccc(/C=N/Nc2nncc3ccccc23)cc1`, the IC50 is 1360 nM.
As for `O=C(NCCc1ccccc1)c1ccc2c(c1)OCCO2`, the IC50 was 1060 nM.
The result for `Cc1ccccc1OCC(=O)Nc1cccc(C(=O)O)c1` reads 1240 nM.
The result for `CN(C)c1ccc(Nc2nc(N)c3ccccc3n2)cc1` reads 2520 nM; that for `CCCS(=O)(=O)c1cnc(C2COc3ccccc3O2)nc1N` (centres undefined), 1400 nM.

For the origin of these results see PubChem BioAssay AID1973 (The Scripps Research Institute Molecular Screening Center, 2009).
